Laboratory results: the OligoGym collection
Bases are written 5' to 3'; sugars and linkages follow in the same order, as letters with counts (s phosphorothioate, o phosphodiester; PS: all linkages phosphorothioate). The collection does not say whether C is 5-methylated. l = locked nucleic acid (LNA); d = 2'-deoxy (DNA)

target: Tau; test: rat primary cortical neurons, FLIPR, 25 uM ASO

Sequence	calcium oscillation score
AGAGGCACAAGTCCTT (sugars l3 d10 l3, PS)	78.1 % of control
CCGAACTGCGAGGAGC (sugars l3 d10 l3, PS)	5.43 % of control
CCACTACAAGCTCCACAT (sugars l2 d14 l2, PS)	50 % of control
CCCTAAAGTCCCAGGT (sugars l3 d10 l3, PS)	76.2 % of control
CAAATCAATTCTCATTTCAA (sugars l4 d12 l4, PS)	65.7 % of control
CTATTCCTGAATTTTTC (sugars l4 d10 l3, PS)	69 % of control
TAATCCTGTGCTTC (sugars l3 d8 l3, PS)	2.3 % of control
AGAGACCACATTATCATCCA (sugars l3 d14 l3, PS)	26.2 % of control
GCGGAAGGTCAGCTTG (sugars l3 d10 l3, PS)	25.9 % of control
ACCTCGTCAGCTAGCG (sugars l3 d10 l3, PS)	65.2 % of control
CTTTATTTCCAAATTCACTT (sugars l5 d10 l5, PS)	≥ 200 % of control
CTTTATTTCCAAATTCAC (sugars l5 d9 l1 d1 l2, PS)	119 % of control
CTCCTAATTTTGCACTCA (sugars l3 d13 l2, PS)	50.5 % of control
TTAATTCATTTAATTCTCTT (sugars l4 d12 l4, PS)	86.1 % of control
CCCACATTATATCAGTA (sugars l2 d12 l3, PS)	80.7 % of control
TTAACTCATCAACACCTTTT (sugars l4 d13 l3, PS)	59 % of control
TCCTAATCCTGTGC (sugars l3 d8 l3, PS)	65 % of control
CCCAGCGTGATCTTCCATCA (sugars l5 d11 l4, PS)	106 % of control
GAGGCACAAGTCCTTA (sugars l3 d10 l3, PS)	76.2 % of control
GCCTTACTTTCTACTCAA (sugars l2 d13 l3, PS)	53.9 % of control
CACCTCCTATATTCTCAG (sugars l2 d12 l4, PS)	75.4 % of control
GGGACGTGGGTGATATTGTC (sugars l3 d14 l3, PS)	0 % of control

Sequence	calcium oscillation score
AAGACCAAGCAGAGATAAAC (sugars l3 d14 l3, PS)	16.7 % of control
TTTTTCTCTCTTAACTTTAT (sugars l4 d12 l4, PS)	93.2 % of control
ATGACATTTTAAACCCC (sugars l3 d11 l3, PS)	54.9 % of control
TATCTGCAAACTCAAC (sugars l4 d8 l4, PS)	98.9 % of control
ATTTCCAAATTCACTTTTAC (sugars llddldldddddddddllll, PS)	143 % of control
CCTCTTCCACTACAAGCT (sugars l2 d14 l2, PS)	49.1 % of control
CAACTCTTTGAACACCC (sugars l4 d11 l2, PS)	76.8 % of control
CTAATTTAGTCACCATC (sugars l3 d10 l4, PS)	83.3 % of control
TGGAAAGATGAAATTTGCTC (sugars l3 d14 l3, PS)	5.81 % of control
CTCCAATTTTAAACTTAA (sugars l4 d10 l4, PS)	69 % of control
CCTTACTTTCTACTCAATT (sugars l3 d14 l2, PS)	48.1 % of control
CAGGTCTGGCATGGGCACGG (sugars l3 d14 l3, PS)	0 % of control
ATCAATTCTCATTTCAACCT (sugars l3 d15 l2, PS)	70.7 % of control
ACCTTACCACTTTCAG (sugars l3 d10 l3, PS)	104 % of control
TATTTCCAAATTCACTTTTA (sugars llldldddddddddldldll, PS)	108 % of control
ACTTTATTTCCAAATTCACTTTTAC (sugars ldllddddddddddddddddllldl, PS)	76.7 % of control
ATAAATTTGAACCCCT (sugars l3 d9 l4, PS)	49.7 % of control
GTCTGGCATGGGCAC (sugars l3 d9 l3, PS)	62.9 % of control
AGGTCAACTGGTTTGT (sugars l3 d10 l3, PS)	0 % of control
CCGTGGTCTGTCTT (sugars l3 d8 l3, PS)	20.9 % of control
CCCCTCCATTAAGAACCT (sugars l1 d15 l2, PS)	88.6 % of control
CTCAAAATCCTTAATTTAAC (sugars l4 d12 l4, PS)	64.4 % of control

Sequence	calcium oscillation score
AGTCTACCATGTCGAT (sugars l3 d10 l3, PS)	69.1 % of control
AAATCCTTAATTTAACCACA (sugars l4 d12 l4, PS)	63.1 % of control
ATCGCTTCCAGTCC (sugars l3 d8 l3, PS)	29.9 % of control
TAAAGTCCCAGGTC (sugars l3 d8 l3, PS)	72.4 % of control
GGACGTGGGTGATATTGTCC (sugars l3 d14 l3, PS)	0 % of control
CCTTTTCTACTCTACTCT (sugars l3 d13 l2, PS)	63.3 % of control
ATCAGAGGTTTCAGAG (sugars l3 d10 l3, PS)	0 % of control
AACATCTAAACACCTCAA (sugars l4 d10 l4, PS)	78.9 % of control
TCTAATTTAGTCACCAT (sugars l4 d10 l3, PS)	96 % of control
CACTGTTACACATTTA (sugars l4 d8 l4, PS)	70.6 % of control
AACTTCTAGTTATACAGTTG (sugars l3 d14 l3, PS)	26.2 % of control
TGTAGACTATTTGCACACTG (sugars l3 d14 l3, PS)	7.41 % of control
CGTGGGTGATATTGTCCAGG (sugars l3 d14 l3, PS)	0 % of control
CATAAATGACTATACTTATT (sugars l3 d14 l3, PS)	94.7 % of control
GACCCTTTTTCTTAAC (sugars l4 d10 l2, PS)	59.1 % of control
ATCAGTCTTATCTCCCA (sugars l3 d12 l2, PS)	49.2 % of control
ATTCATAAATGACTATACTT (sugars l3 d14 l3, PS)	68.5 % of control
AATAGATCTTTCCCCTCC (sugars l2 d13 l3, PS)	76.7 % of control
TATTGCTTTCCAATTCCC (sugars l4 d12 l2, PS)	93.2 % of control
ATCACAAACCCTGCTTGGCC (sugars l3 d14 l3, PS)	55.2 % of control
TTTTCAAACACACCTTCAT (sugars l3 d12 l4, PS)	80.8 % of control
ATTTGGAAAGATGAAATTTG (sugars l3 d14 l3, PS)	0 % of control

Sequence	calcium oscillation score
ACCACTGGCGACTTGTACAC (sugars l3 d14 l3, PS)	5.18 % of control
TTCTGAATTCCTATCAT (sugars l4 d10 l3, PS)	40.1 % of control
AACCAACTTTCATCTACT (sugars l4 d11 l3, PS)	73.5 % of control
TTTATTTCCAAATTCACTTT (sugars l5 d11 l4, PS)	115 % of control
GATGTTGCCTAATGAGCCAC (sugars l3 d14 l3, PS)	4.52 % of control
CACATTTGCAAACCACA (sugars l3 d10 l4, PS)	67.4 % of control
TTTGTAGACTATTT (sugars l3 d8 l3, PS)	90.7 % of control
TGTAGACTATTTGC (sugars l3 d8 l3, PS)	30.9 % of control
TCACCACTTTAATCTGC (sugars l2 d12 l3, PS)	45.7 % of control
AGCTTTGAGTTGAGGG (sugars l3 d10 l3, PS)	0 % of control
ACTCTAAGTAGACCCTGGCC (sugars l3 d14 l3, PS)	4.76 % of control
TTACCCATCTTAATTCATTT (sugars l4 d14 l2, PS)	96.1 % of control
GTAGACTATTTGCACACTGC (sugars l3 d14 l3, PS)	11.1 % of control
ATCCATTAATTTAGCC (sugars l3 d10 l3, PS)	76.7 % of control
CCCGCCTTTAGTGATT (sugars l3 d10 l3, PS)	30.9 % of control
CTGCCGGTGGAGGAGA (sugars l3 d10 l3, PS)	0 % of control
TTATTTCCAAATTCACTTTT (sugars lllldddddddddldlddll, PS)	102 % of control
AATCCTTAATTTAACCACAT (sugars l4 d13 l3, PS)	56.8 % of control
TCCCCCAAAATATCTCAA (sugars l3 d13 l2, PS)	53.9 % of control
TCAGATTTAATTCTCAC (sugars l4 d9 l4, PS)	50.7 % of control
CTCGCGGAAGGTCAGC (sugars l3 d10 l3, PS)	0 % of control
GGCATGATTGTGGGC (sugars l3 d9 l3, PS)	5.22 % of control

Sequence	calcium oscillation score
TAACTCAAATCAATTCTCAT (sugars l4 d12 l4, PS)	63.9 % of control
TACACCATCCAAGTCAATGC (sugars l3 d14 l3, PS)	6.04 % of control
CATTTTTGTCTCATTAT (sugars l4 d9 l4, PS)	51 % of control
TCCATTTTCACTGTTCA (sugars l3 d12 l2, PS)	87.7 % of control
GGGCCTGATCACAAACCCTG (sugars l3 d14 l3, PS)	42.7 % of control
CCAATCTTCGACTGGACTCT (sugars l3 d14 l3, PS)	22.6 % of control
GCTCCATATTCCTGCCCAAG (sugars l3 d14 l3, PS)	34.2 % of control
TAAAGTCCCAGGTCT (sugars l3 d9 l3, PS)	124 % of control
AACCGTTTTCTTACCAC (sugars l2 d11 l4, PS)	60.1 % of control
CACCTTCAGCCCAACTT (sugars l4 d11 l2, PS)	41.6 % of control
TGGTTAGCCCTAAAGTCCCA (sugars l3 d14 l3, PS)	74.5 % of control
CTGGCCATCTTATGCTGACC (sugars l3 d14 l3, PS)	12.8 % of control
AAGAGGGCAGCAGGCC (sugars l3 d10 l3, PS)	73.1 % of control
CTCTTCCACTACAAGCTC (sugars l3 d13 l2, PS)	28.9 % of control
TACAATCCACTCCTCC (sugars l2 d10 l4, PS)	56.4 % of control
TCAATTTCCCTGTTAAT (sugars l4 d11 l2, PS)	53.4 % of control
GGGACGTGGGTGATAT (sugars l3 d10 l3, PS)	27.6 % of control
TCTTGTGATGCAGGA (sugars l3 d9 l3, PS)	91.8 % of control
CTTTATTTCCAAATTCACTT (sugars l3 d1 l1 d12 l3, PS)	29.8 % of control
ACCATCATACTCCAAGT (sugars l3 d12 l2, PS)	77.7 % of control
